Test results taken from the supplement of paper PMC10307832.

Legend:
Test in all cases: relative viability (nuclei count vs DMSO), 5 days (fraction); higher = more cells survive
[1] = compound: Cn1cc(-c2cnn3c(N)c(Br)c([C@@H]4CCCNC4)nc23)cn1 + CC(=O)Nc1cccc(-n2c(=O)n(C3CC3)c(=O)c3c(Nc4ccc(I)cc4F)n(C)c(=O)c(C)c32)c1 [Trametinib] (partner 0.02 µM)
Procedure, shortened: (§1)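 Relative viability is defined as nuclei in treated wells over nuclei in vehicle wells. Duplicate plates were run and medians reported. Lung cancer cell lines in 1536-well plates were dosed by pin tool one day after seeding, with one drug or with a fixed anchor-drug dose plus five library-drug doses (not always all listed) in √10 steps, and nuclei were counted after 5 days.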

[2] = compound: Cn1cc(-c2cnn3c(N)c(Br)c([C@@H]4CCCNC4)nc23)cn1 + O=C(c1cc(Cc2n[nH]c(=O)c3ccccc23)ccc1F)N1CCN(C(=O)C2CC2)CC1 [Olaparib] (partner 8 µM)
Procedure, shortened: as §1

[3] = compound: Cn1cc(-c2cnn3c(N)c(Br)c([C@@H]4CCCNC4)nc23)cn1 + CS(=O)(=O)CCNCc1ccc(-c2ccc3ncnc(Nc4ccc(OCc5cccc(F)c5)c(Cl)c4)c3c2)o1 [Lapatinib] (partner 2 µM)
Procedure, shortened: as §1

[4] = compound: Cn1cc(-c2cnn3c(N)c(Br)c([C@@H]4CCCNC4)nc23)cn1 + N=C(N)NC(=N)NCCc1ccccc1 [Phenformin] (partner 250 µM)
Procedure, shortened: as §1

Cell Line	relative viability ([1]; first compound 0.05 µM)	relative viability ([1]; first compound 0.1581 µM)	relative viability ([1]; first compound 0.5 µM)	relative viability ([1]; first compound 1.581 µM)	relative viability ([1]; first compound 5 µM)	relative viability ([2]; first compound 0.05 µM)	relative viability ([2]; first compound 0.1581 µM)	relative viability ([2]; first compound 0.5 µM)	relative viability ([2]; first compound 1.581 µM)	relative viability ([2]; first compound 5 µM)	relative viability ([3]; first compound 0.05 µM)	relative viability ([3]; first compound 0.1581 µM)	relative viability ([3]; first compound 0.5 µM)	relative viability ([3]; first compound 1.581 µM)	relative viability ([3]; first compound 5 µM)	relative viability ([4]; first compound 0.05 µM)	relative viability ([4]; first compound 0.1581 µM)	relative viability ([4]; first compound 0.5 µM)	relative viability ([4]; first compound 1.581 µM)	relative viability ([4]; first compound 5 µM)
HARA	0.762	0.474	0.482	0.532	0.344	0.758	0.856	0.784	0.442	0.229	0.728	0.873	1.08	0.626	0.179	0.468	0.518	0.448	0.36	0.136
NCI-H2126	0.628	0.549	0.548	0.561	0.597	0.965	0.923	0.887	0.792	0.923	0.743	0.847	0.753	0.642	0.817	0.492	0.543	0.51	0.491	0.47
LXF-289	0.712	0.71	0.662	0.62	0.673	1.17	1.27	1.04	1.17	1.31	0.922	1.02	0.887	0.904	0.896	0.525	0.57	0.496	0.486	0.528
NCI-H460	0.152	0.209	0.0974	0.0913	0.0615	0.341	0.195	0.38	0.233	0.127	1.12	1.37	1.15	0.288	0.591	0.493	0.512	0.456	0.176	0.0895
NCI-H1395	1.22	0.544	0.883	0.569	0.444	0.432	0.445	0.395	0.376	0.372	1.01	0.634	0.756	0.833	0.397	0.44	0.41	0.435	0.359	0.358
NCI-H2170	0.973	0.93	0.927	0.763	1.13	0.605	0.588	0.649	0.523	0.555	0.26	0.252	0.289	0.282	0.286	0.415	0.441	0.429	0.429	0.429
NCI-H2009	0.272	0.284	0.271	0.252	0.224	0.685	0.749	0.714	0.872	0.595	0.975	1.06	0.865	0.798	0.794	0.487	0.507	0.453	0.434	0.409
